Assay results taken from PubChem BioAssay AID2060483 (Molecular Pharmacology Branch, DTP, NCI, 2025).

Tested on: K24384-001-R-PDC complex spheroids, viability
Experiment: Anticancer human tumor K24384-001-R-PDC patient-derived pancreatic adenocarcinoma cell line growth inhibition [GQUAD]
Details: for IC50: curve of first compound; for viability, T/C: stronger effect = lower value
How it was run: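 Multi-cell-type spheroids of tumor cells with HUVEC and mesenchymal stem cells, treated with drug combinations. Concentrations descend in half-log steps from near clinical Cmax, or from 10 microM where Cmax is unknown; viability read-out.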

[1] = second compound 0.0316 µM, first compound 0.0316 µM
[2] = second compound 0.0316 µM, first compound 0.1 µM
[3] = second compound 0.0316 µM, first compound 0.316 µM
[4] = second compound 0.0316 µM, first compound 1 µM
[5] = second compound 0.0316 µM, first compound 3.16 µM
[6] = second compound 0.0316 µM, first compound 10 µM
[7] = second compound 0.1 µM, first compound 0.0316 µM
[8] = second compound 0.1 µM, first compound 0.1 µM
[9] = second compound 0.1 µM, first compound 0.316 µM
[10] = second compound 0.1 µM, first compound 1 µM
[11] = second compound 0.1 µM, first compound 3.16 µM
[12] = second compound 0.1 µM, first compound 10 µM
[13] = second compound 0.316 µM, first compound 0.0316 µM
[14] = second compound 0.316 µM, first compound 0.1 µM
[15] = second compound 0.316 µM, first compound 0.316 µM
[16] = second compound 0.316 µM, first compound 1 µM
[17] = second compound 0.316 µM, first compound 3.16 µM
[18] = second compound 0.316 µM, first compound 10 µM
[19] = second compound 1 µM, first compound 0.0316 µM
[20] = second compound 1 µM, first compound 0.1 µM
[21] = second compound 1 µM, first compound 0.316 µM
[22] = second compound 1 µM, first compound 1 µM
[23] = second compound 1 µM, first compound 3.16 µM
[24] = second compound 1 µM, first compound 10 µM
[25] = second compound 3.16 µM, first compound 0.0316 µM
[26] = second compound 3.16 µM, first compound 0.1 µM
[27] = second compound 3.16 µM, first compound 0.316 µM
[28] = second compound 3.16 µM, first compound 1 µM
[29] = second compound 3.16 µM, first compound 3.16 µM
[30] = second compound 3.16 µM, first compound 10 µM
[31] = second compound 10 µM, first compound 0.0316 µM
[32] = second compound 10 µM, first compound 0.1 µM
[33] = second compound 10 µM, first compound 0.316 µM
[34] = second compound 10 µM, first compound 1 µM
[35] = second compound 10 µM, first compound 3.16 µM
[36] = second compound 10 µM, first compound 10 µM
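Further: spheroids exposed to compounds for seven days.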

Work on C=CC(=O)N1CCN(c2nc(=O)n(-c3c(C)ccnc3C(C)C)c3nc(-c4c(O)cccc4F)c(F)cc23)C(C)C1 (stereo not drawn) + Cc1cnc(CNC(=O)c2c(=O)c3ccc(N4CCCN(C)CC4)nc3n3c2sc2ccccc23)cn1 yielded an IC50 (second compound 0.0316 µM) greater than 10000 nM, an IC50 (second compound 0.1 µM) of 8780 nM and an IC50 (second compound 0.316 µM) greater than 10000 nM. For the same molecule, the IC50 (second compound 1 µM) was less than 31.6 nM, the IC50 (second compound 3.16 µM) was less than 31.6 nM and the IC50 (second compound 10 µM) was less than 31.6 nM. The viability, T/C [1] was 79.5%, the viability, T/C [2] was 78.9% and the viability, T/C [3] was 92.1%. The viability, T/C [4] was 88.5%, the viability, T/C [5] was 98.4% and the viability, T/C [6] was 83.2%. For the same molecule, the viability, T/C [7] was 54.7%, the viability, T/C [8] was 78% and the viability, T/C [9] was 53.6%. For the same molecule, the viability, T/C [10] was 64.6%, the viability, T/C [11] was 58.8% and the viability, T/C [12] was 48.9%. For the same molecule, the viability, T/C [13] was 48.3%, the viability, T/C [14] was 71.5% and the viability, T/C [15] was 64.3%. The viability, T/C [16] was 65.5%, the viability, T/C [17] was 70.8% and the viability, T/C [18] was 49.3%. The viability, T/C [19] was 41%, the viability, T/C [20] was 52.3% and the viability, T/C [21] was 42.5%. The viability, T/C [22] was 66.3%, the viability, T/C [23] was 59.9% and the viability, T/C [24] was 47.7%. It also gave a viability, T/C [25] of 35.3%, a viability, T/C [26] of 48.6% and a viability, T/C [27] of 39.6%. The viability, T/C [28] was 47.5%, the viability, T/C [29] was 47.5% and the viability, T/C [30] was 37.5%. The viability, T/C [31] was 20.8%, the viability, T/C [32] was 23.7% and the viability, T/C [33] was 31.4%. It also gave a viability, T/C [34] of 42%, a viability, T/C [35] of 23.3% and a viability, T/C [36] of 22.7%.

Cc1cccc(N(C)C(=O)C2C(O)CCN2c2nc(C)cc(C(F)(F)F)c2C#N)c1 (stereo not drawn) + Cc1cnc(CNC(=O)c2c(=O)c3ccc(N4CCCN(C)CC4)nc3n3c2sc2ccccc23)cn1 gave an IC50 (second compound 0.0316 µM) greater than 10000 nM, an IC50 (second compound 0.1 µM) greater than 10000 nM and an IC50 (second compound 0.316 µM) of 31.6 nM. It also gave an IC50 (second compound 1 µM) of less than 31.6 nM, an IC50 (second compound 3.16 µM) of less than 31.6 nM and an IC50 (second compound 10 µM) of less than 31.6 nM. The viability, T/C [1] was 105%, the viability, T/C [2] was 81.5% and the viability, T/C [3] was 86.5%. For the same molecule, the viability, T/C [4] was 74.2%, the viability, T/C [5] was 95.6% and the viability, T/C [6] was 107%. It also gave a viability, T/C [7] of 70%, a viability, T/C [8] of 73.8% and a viability, T/C [9] of 57.7%. For the same molecule, the viability, T/C [10] was 69.6%, the viability, T/C [11] was 72.9% and the viability, T/C [12] was 71.6%. It also gave a viability, T/C [13] of 53.3%, a viability, T/C [14] of 56% and a viability, T/C [15] of 49.2%. The viability, T/C [16] was 57.4%, the viability, T/C [17] was 74.9% and the viability, T/C [18] was 55.8%. The viability, T/C [19] was 44.1%, the viability, T/C [20] was 44.4% and the viability, T/C [21] was 50.5%. For the same molecule, the viability, T/C [22] was 44.6%, the viability, T/C [23] was 57.5% and the viability, T/C [24] was 41.7%. The viability, T/C [25] was 38.1%, the viability, T/C [26] was 42% and the viability, T/C [27] was 41.3%. It also gave a viability, T/C [28] of 49.3%, a viability, T/C [29] of 39.9% and a viability, T/C [30] of 41.5%. It also gave a viability, T/C [31] of 40.6%, a viability, T/C [32] of 37.4% and a viability, T/C [33] of 43.3%. The viability, T/C [34] was 44.4%, the viability, T/C [35] was 26.2% and the viability, T/C [36] was 36.4%.

Cn1ncnc1[C@H]1c2n[nH]c(=O)c3cc(F)cc(c23)N[C@@H]1c1ccc(F)cc1 + Cc1cnc(CNC(=O)c2c(=O)c3ccc(N4CCCN(C)CC4)nc3n3c2sc2ccccc23)cn1 gave an IC50 (second compound 0.0316 µM) greater than 316 nM, an IC50 (second compound 0.1 µM) greater than 316 nM and an IC50 (second compound 0.316 µM) greater than 316 nM. The IC50 (second compound 1 µM) was less than 0.999 nM, the IC50 (second compound 3.16 µM) was less than 0.999 nM and the IC50 (second compound 10 µM) was less than 0.999 nM. The viability, T/C (second compound 0.0316 µM, first compound 0.000999 µM) was 93.1%, the viability, T/C (second compound 0.0316 µM, first compound 0.00316 µM) was 80.8% and the viability, T/C (second compound 0.0316 µM, first compound 0.00999 µM) was 92.5%. For the same molecule, the viability, T/C [1] was 81.9%, the viability, T/C (second compound 0.0316 µM, first compound 0.0999 µM) was 87.2% and the viability, T/C [3] was 105%. It also gave a viability, T/C (second compound 0.1 µM, first compound 0.000999 µM) of 69.1%, a viability, T/C (second compound 0.1 µM, first compound 0.00316 µM) of 76% and a viability, T/C (second compound 0.1 µM, first compound 0.00999 µM) of 53.6%. The viability, T/C [7] was 68.6%, the viability, T/C (second compound 0.1 µM, first compound 0.0999 µM) was 72.8% and the viability, T/C [9] was 86.9%. It also gave a viability, T/C (second compound 0.316 µM, first compound 0.000999 µM) of 52.5%, a viability, T/C (second compound 0.316 µM, first compound 0.00316 µM) of 63.1% and a viability, T/C (second compound 0.316 µM, first compound 0.00999 µM) of 50.6%. For the same molecule, the viability, T/C [13] was 50.5%, the viability, T/C (second compound 0.316 µM, first compound 0.0999 µM) was 53.5% and the viability, T/C [15] was 58.1%. The viability, T/C (second compound 1 µM, first compound 0.000999 µM) was 44.6%, the viability, T/C (second compound 1 µM, first compound 0.00316 µM) was 50.3% and the viability, T/C (second compound 1 µM, first compound 0.00999 µM) was 43.6%. For the same molecule, the viability, T/C [19] was 48.6%, the viability, T/C (second compound 1 µM, first compound 0.0999 µM) was 62.6% and the viability, T/C [21] was 42%. It also gave a viability, T/C (second compound 3.16 µM, first compound 0.000999 µM) of 43.4%, a viability, T/C (second compound 3.16 µM, first compound 0.00316 µM) of 45.2% and a viability, T/C (second compound 3.16 µM, first compound 0.00999 µM) of 43.5%. The viability, T/C [25] was 44.7%, the viability, T/C (second compound 3.16 µM, first compound 0.0999 µM) was 47.8% and the viability, T/C [27] was 39%. The viability, T/C (second compound 10 µM, first compound 0.000999 µM) was 42.8%, the viability, T/C (second compound 10 µM, first compound 0.00316 µM) was 40.2% and the viability, T/C (second compound 10 µM, first compound 0.00999 µM) was 37.7%. It also gave a viability, T/C [31] of 46.3%, a viability, T/C (second compound 10 µM, first compound 0.0999 µM) of 26.6% and a viability, T/C [33] of 32.8%.

O=C(c1cc(Cc2n[nH]c(=O)c3ccccc23)ccc1F)N1CCN(C(=O)C2CC2)CC1 + Cc1cnc(CNC(=O)c2c(=O)c3ccc(N4CCCN(C)CC4)nc3n3c2sc2ccccc23)cn1 was tested, and the IC50 (second compound 0.0316 µM) was greater than 10000 nM, the IC50 (second compound 0.1 µM) was greater than 10000 nM and the IC50 (second compound 0.316 µM) was greater than 10000 nM. The IC50 (second compound 1 µM) was 31.6 nM, the IC50 (second compound 3.16 µM) was less than 31.6 nM and the IC50 (second compound 10 µM) was less than 31.6 nM. The viability, T/C [1] was 88.4%, the viability, T/C [2] was 93.5% and the viability, T/C [3] was 92.8%. For the same molecule, the viability, T/C [4] was 113%, the viability, T/C [5] was 94.8% and the viability, T/C [6] was 86.3%. For the same molecule, the viability, T/C [7] was 71.8%, the viability, T/C [8] was 88.7% and the viability, T/C [9] was 66.9%. The viability, T/C [10] was 83.6%, the viability, T/C [11] was 70.9% and the viability, T/C [12] was 80.7%. The viability, T/C [13] was 62.5%, the viability, T/C [14] was 81.5% and the viability, T/C [15] was 60%. For the same molecule, the viability, T/C [16] was 88.3%, the viability, T/C [17] was 88.7% and the viability, T/C [18] was 62.5%. For the same molecule, the viability, T/C [19] was 53%, the viability, T/C [20] was 48.4% and the viability, T/C [21] was 49.1%. It also gave a viability, T/C [22] of 67.4%, a viability, T/C [23] of 60.2% and a viability, T/C [24] of 49.7%. For the same molecule, the viability, T/C [25] was 43.5%, the viability, T/C [26] was 52.8% and the viability, T/C [27] was 47.6%. It also gave a viability, T/C [28] of 59.5%, a viability, T/C [29] of 38.3% and a viability, T/C [30] of 50.9%. For the same molecule, the viability, T/C [31] was 40.5%, the viability, T/C [32] was 24.1% and the viability, T/C [33] was 43.3%. The viability, T/C [34] was 45.6%, the viability, T/C [35] was 27.9% and the viability, T/C [36] was 12.3%.
